# Test results as given in patent US8765802B2, “Kinase inhibitors, compositions thereof, and methods of use therewith” (Provid Pharmaceuticals, Inc., priority 2007, dated 2014).
# Biological target: T1, Chk2 (Homo sapiens, UniProt O96017)
# T1 construct: made in house; host or cells: E. coli BL21 Star (Invitrogen)
# Test: Chk2 inhibitor IMAP assay (high-throughput Chk2 screening assay)
# Format: biochemical
# Conditions: IMAP fluorescence polarization assay, 10 μM ATP
# Procedure: Compounds set forth in Table 1 were tested in the Chk2 inhibitor IMAP assay described herein in Example 6.84. […] The letters given for the Chk2 EC50 values in Table 1 represent the following ranges: A=<100 nM; B=100-300 nM; C=300-1000 nM; D=1-10 μM; and E>10 μM.
# Compounds can be screened for Chk2 inhibitory activity using a high-throughput screening assay based in the immobilized metal ion affinity-based fluorescence polarization (IMAP) assay developed by Molecular Devices. This assay is based on the high affinity binding of phosphate by immobilized metal (MIII) coordination complexes on nanoparticles. A fluorescein-labeled peptide substrate is used as the substrate for the kinase activity of Chk2 in the assay. The IMAP binding reagent stops the kinase reaction. The binding of the binding reagent results in a change in the rate of molecular motion of the peptide and causes an increase in the fluorescence polarization value observed for the fluorescein label attached to the end of the peptide. Thus, inhibition of Chk2 would result in a decrease in fluorescence polarization compared to control.
# A specific protocol for screening Compounds for Chk2 inhibitory activity follows.
# A Compound is supplied at 1 mM in 0.5 μl DMSO on 384 well plates (such as Greiner or Corning). After thawing, 5 μl DMSO is added to the drug plate. The drug plate is then incubated for 10 minutes to solubilize the Compound. An additional 19.5 μl of reaction buffer (10× stock prepared using 100 mM Tris-HCl, 100 mM MgCl2, 1% BSA, pH 7.2, stored at 4° C.)+1 mM DDT is added to bring the Compound to 4× final concentration. A positive control is also prepared at 4× final concentration. The following control wells are used: less enzyme control (all reagents except enzyme; 5 μl/well), less Compound control (all reagents except Compound; 5 μl/well), positive control (all reagents plus staurosporine at a final concentration of 5 μM; 5 μl/well).
# Reagents are then added in the following order to give the following final concentration: 2.5 μl ATP/Chk2tide (Molecular Devices) (10 μM/100 nM final concentration), 1.25 μl Compound (5 μM final concentration inf 5.5% DMSO), and 1.25 μl Chk2 (1:500, 2.4 μg/mL final concentration).
# Plates are covered and incubated at room temperature for 60 minutes.
# IMAP binding reagent (Molecular Devices) is diluted 1:400 into binding buffer (Molecular Devices). 15 μl of this solution is then added to all wells and the plates are covered and incubated for 30 minutes.
# Plates are read using a Tecan Ultra under the fluorescence polarization mode. Gain is set to the less enzyme and less Compound wells for each plate. Excitation 485 nm, emmission 535 nm, Z position 12519 and flashes 5 are used as settings. Raw data from the Tecan reader is imported into an access database for analysis.
# T1 sequence (O96017 whole entry): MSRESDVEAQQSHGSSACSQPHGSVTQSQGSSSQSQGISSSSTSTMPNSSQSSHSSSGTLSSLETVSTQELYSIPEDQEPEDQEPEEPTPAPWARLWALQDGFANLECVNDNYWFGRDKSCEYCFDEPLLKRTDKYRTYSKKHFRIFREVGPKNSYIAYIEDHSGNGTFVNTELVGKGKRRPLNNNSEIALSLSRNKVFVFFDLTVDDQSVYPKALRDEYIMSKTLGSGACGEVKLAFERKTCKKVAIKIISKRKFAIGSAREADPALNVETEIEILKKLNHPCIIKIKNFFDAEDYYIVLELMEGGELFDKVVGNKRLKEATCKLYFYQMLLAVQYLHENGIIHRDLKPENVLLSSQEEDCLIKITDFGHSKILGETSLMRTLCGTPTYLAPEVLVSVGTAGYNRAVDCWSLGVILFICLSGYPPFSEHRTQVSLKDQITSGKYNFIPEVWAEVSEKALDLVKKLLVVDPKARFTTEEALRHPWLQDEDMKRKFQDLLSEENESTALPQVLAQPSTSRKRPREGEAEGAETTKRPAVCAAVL
row,Compound,EC50 [nM]
1,C/C(=N\NC1=NCCN1)c1ccc(NC(=O)c2cc3cccc([N+](=O)[O-])c3[nH]2)cc1 [Compound 22],< 100
2,C/C(=N\NC(=N)N)c1ccc(NC(=O)Nc2ccc(/C(C)=N/NC(=N)N)c(C)c2)cc1 [Compound 4],100 to 300
3,"CCCC(=NNC(=N)N)c1ccc2[nH]c(C(=O)Nc3ccc4cc[nH]c4c3)cc2c1 (single isomer, unassigned) [Compound 113]",300 to 1000
4,CC/C(=N\NC(=N)N)c1ccc(NC(=O)c2ccco2)cc1 [Compound 53],1000 to 10000
5,C/C(=N/NC(=N)N)c1ccc(NC(=O)Nc2ccc(/C(C)=N/NC(=N)N)cc2)c2ccccc12 [Compound 60],1000 to 10000
6,CC(=NNC(=N)N)c1ccc(NC(=O)Nc2ccc3c(c2)CCC(C)C3=NNC(=N)N)cc1 (stereo not drawn) [Compound 5],300 to 1000
7,N=C(N)N/N=C1\CCCc2cc(NC(=O)c3cc4cccc([N+](=O)[O-])c4[nH]3)ccc21 [Compound 86],< 100
8,C/C(=N/N/C(N)=N\O)c1ccc2[nH]c(C(=O)Nc3ccc(N4CCCCC4)cc3)cc2c1 [Compound 128],100 to 300
9,"CC(C)CC(=NNC(=N)N)c1ccc2[nH]c(C(=O)Nc3ccc4cc[nH]c4c3)cc2c1 (single isomer, unassigned) [Compound 124]",1000 to 10000
10,COc1ccc2[nH]c(C(=O)Nc3ccc(/C(C)=N/NC4=NCCN4)cc3)cc2c1 [Compound 19],100 to 300
11,C/C(=N\NC(=N)N)c1ccc(NC(=O)Nc2ccc(-c3csc(NN)n3)cc2)cc1 [Compound 48],> 10000
12,C/C(=N\NC(=N)N)c1ccc2[nH]c(C(=O)Nc3ccc4nc[nH]c4c3)cc2c1 [Compound 121],< 100
13,C/C(=N\NC(=N)N)c1ccc2[nH]c(C(=O)Nc3ccc4[nH]c(C)cc4c3)cc2c1 [Compound 109],300 to 1000
14,COc1ccc2[nH]nc(C(=O)Nc3ccc(/C(C)=N/NC(=N)N)cc3)c2c1 [Compound 41],1000 to 10000
15,CSC(=N)N/N=C(\C)c1ccc(NC(=O)Nc2ccc(/C(C)=N/NC(=N)SC)cc2)cc1 [Compound 63],1000 to 10000
16,C/C(=N\NC(=N)N)c1ccc(NC(=O)Nc2ccc(/C(=N/NC(=N)N)C(C)C)cc2)cc1 [Compound 51],1000 to 10000
17,COc1cc2nc(NC(=O)c3ccc(/C(C)=N\NC(=N)N)cc3)sc2cc1OC [Compound 45],1000 to 10000
18,CC(=NNC(N)=NO)c1ccc(NC(=O)Nc2ccc(C(C)=NNC(N)=NO)cc2)cc1 [Compound 116],< 100
19,C/C(=N\N/C(=N\N)NN)c1ccc(NC(=O)Nc2ccc(/C(C)=N/N/C(=N\N)NN)cc2)cc1 [Compound 65],100 to 300
20,C/C(=N\NC(=N)N)c1ccc(NC(=O)c2cn3ccccc3n2)cc1 [Compound 106],1000 to 10000
21,C/C(=N\NC(=N)N)c1ccc2[nH]c(C(=O)Nc3ccc4cnccc4c3)cc2c1 [Compound 126],< 100
22,C/C(=N\NC(=N)N)c1ccc(NC(=O)Nc2ccc(I)cc2)cc1 [Compound 38],300 to 1000
23,C/C(=N/NC(=N)N)c1ccc(NC(=O)Nc2ccc(/C(C)=N/NC(=N)N)cc2)cc1C [Compound 61],> 10000
24,CSC(=N)N/N=C(\C)c1ccc(NC(=O)Nc2ccc(C(C)=O)cc2)cc1 [Compound 64],> 10000
25,CC(=O)c1ccc(NC(=O)Nc2ccc(/C(C)=N/NC3=NCCN3)cc2)cc1 [Compound 66],100 to 300

# More lines, now with the values ahead:
row,EC50 [nM],Compound
1,300 to 1000,COc1ccc2cc(C(=O)Nc3ccc(/C(C)=N/NC(=N)N)cc3)[nH]c2c1 [Compound 74]
2,1000 to 10000,COC(=O)c1ccc(NC(=O)Nc2ccc(/C(C)=N/NC(=N)N)cc2)cc1 [Compound 56]
3,1000 to 10000,C/C(=N\NC(=N)N)c1ccc(NC(=O)c2cc3cccc(/C(C)=N/NC(=N)N)c3[nH]2)cc1 [Compound 68]
4,< 100,C/C(=N\NC(=N)N)c1ccc(NC(=O)c2cc3cc(/C(C)=N/NC(=N)N)ccc3[nH]2)cc1 [Compound 17]
5,1000 to 10000,C/C(=N/NC(=N)N)c1ccc(NC(=O)c2cc3cc(OCc4ccccc4)ccc3[nH]2)cc1 [Compound 34]
6,1000 to 10000,C/C(=N\NC(=N)N)c1ccc(NC(=O)c2cc3cc(Br)ccc3o2)cc1 [Compound 32]
7,1000 to 10000,COc1cc(OC)c2cc(C(=O)Nc3ccc(/C(C)=N/NC(=N)N)cc3)[nH]c2c1 [Compound 40]
8,< 100,C/C(=N\NC(=N)N)c1ccc2[nH]c(C(=O)Nc3ccc4ncccc4c3)cc2c1 [Compound 101]
9,< 100,COc1ccc2[nH]c(C(=O)Nc3ccc(/C(C)=N/NC(=N)N)cc3)cc2c1 [Compound 10]
10,300 to 1000,COc1cccc2cc(C(=O)Nc3ccc(/C(C)=N/NC(=N)N)cc3)oc12 [Compound 31]
11,1000 to 10000,C/C(=N\NC(=N)N)c1ccc(NC(=O)c2cc3cc(F)ccc3[nH]2)cc1 [Compound 87]
12,300 to 1000,C/C(=N\NC(=N)N)c1ccc(NC(=O)c2cc3cc(N)ccc3[nH]2)cc1 [Compound 25]
13,300 to 1000,CC(=O)Nc1cccc2cc(C(=O)Nc3ccc(/C(C)=N/NC(=N)N)cc3)[nH]c12 [Compound 76]
14,> 10000,CC(=NNC(=N)N)c1ccc(NC(=O)c2cc3cc([N+](=O)[O-])ccc3[nH]2)cc1 [Compound 35]
15,1000 to 10000,COc1cccc2cc(C(=O)Nc3ccc(C(C)=NNC(=N)N)cc3)[nH]c12 [Compound 75]
16,300 to 1000,C/C(=N\NC(=N)N)c1ccc2[nH]c(C(=O)Nc3cccc(N)c3)cc2c1 [Compound 111]
17,1000 to 10000,C/C(=N\NC(=N)N)c1ccc(NC(=O)c2cc3cccc([N+](=O)[O-])c3[nH]2)cc1C [Compound 84]
18,1000 to 10000,C/C(=N\NC(=N)N)c1ccc(NC(=O)c2cc3c(C)cccc3[nH]2)cc1 [Compound 97]

row,EC50 [nM],Compound
1,100 to 300,C/C(=N\NC(=N)N)c1ccc(NC(=O)c2cc3cc(C(N)=O)ccc3[nH]2)cc1 [Compound 27]
2,300 to 1000,C/C(=N\NC(=N)N)c1ccc(NC(=O)c2cc3ccc(Cl)cc3[nH]2)cc1 [Compound 94]
3,100 to 300,C/C(=N\NC(=N)N)c1ccc(NC(=O)c2cc3cc(C)ccc3[nH]2)cc1 [Compound 9]
4,1000 to 10000,C/C(=N\NC(=N)N)c1ccc(NC(=O)c2cc3cccc(NS(N)(=O)=O)c3[nH]2)cc1 [Compound 95]
5,300 to 1000,C/C(=N\NC(=N)N)c1ccc(NC(=O)c2cc3ccc(S(C)(=O)=O)cc3[nH]2)cc1 [Compound 89]
6,1000 to 10000,C/C(=N\NC(=N)N)c1ccc(NC(=O)c2cc3cccc(N)c3[nH]2)cc1 [Compound 77]
7,< 100,CC(=NNC(N)=NO)c1ccc(NC(=O)c2cc3cccc([N+](=O)[O-])c3[nH]2)cc1 [Compound 118]
8,300 to 1000,C/C(=N\N/C(N)=N/O)c1ccc(NC(=O)c2cc3cc(C(N)=O)ccc3[nH]2)cc1 [Compound 129]
9,< 100,CC(=O)c1ccc2[nH]c(C(=O)Nc3ccc(/C(C)=N/NC(=N)N)cc3)cc2c1 [Compound 71]
10,1000 to 10000,C/C(=N\NC(=N)N)c1ccc(NC(=O)c2cc3ccc(N)cc3[nH]2)cc1 [Compound 83]
11,1000 to 10000,CCCOc1ccc2cc(C(=O)Nc3ccc(/C(C)=N/NC(=N)N)cc3)[nH]c2c1 [Compound 90]
12,300 to 1000,C/C(=N\NC(=N)N)c1ccc2[nH]c(C(=O)Nc3ccc4[nH]ccc4c3)cc2c1 [Compound 80]
13,300 to 1000,CC(=O)Nc1ccc2cc(C(=O)Nc3ccc(/C(C)=N/NC(=N)N)cc3)[nH]c2c1 [Compound 88]
14,100 to 300,C/C(=N\NC(=N)N)c1ccc2[nH]c(C(=O)Nc3ccc(C(N)=O)cc3)cc2c1 [Compound 115]
15,< 100,COc1cc([N+](=O)[O-])c2[nH]c(C(=O)Nc3ccc(/C(C)=N/NC(=N)N)cc3)cc2c1 [Compound 69]
16,300 to 1000,COc1cc2cc(C(=O)Nc3ccc(/C(C)=N/NC(=N)N)cc3)[nH]c2cc1OC [Compound 73]
17,< 100,COc1ccc2[nH]c(C(=O)Nc3ccc(C(C)=NNC(N)=NO)cc3)cc2c1 [Compound 117]
